{
  "source": "patent US9078805B2",
  "about": "“Method for producing a drug delivery system on the basis of polyelectrolyte complexes” (LEIBNIZ-INSTITUT FUER POLYMER-FORSCHUNG DRESDEN E.V., priority 2010, dated 2015)",
  "experiment": "Release of the bisphosphonate and stability of the PEC carrier layer on a germanium model substrate, measured via spectroscopic methods",
  "type": "physicochemical",
  "conditions": "after 1 minute; layer applied and dried on the same germanium model substrate",
  "method": "50 microliter of this drug-loaded PEC dispersion was brushed onto an inorganic planar model substrate of germanium and dried in the drying oven at 50° C. The measurement of the release of the bisphosphonate and the stability of the PEC carrier layer was carried out via spectroscopic methods. After 24 hours a relative reduction of the bisphosphonate content of the PEC/drug layer of approximately 50% resulted. […] For a layer of the pure bisphosphonate applied and dried on the same model substrate as in the case of PEC/drug, after 1 minute an immediate detachment and thus a relative reduction of the bisphosphonate content of approximately 100% resulted.",
  "data": [
    {"smiles": "NCCC(O)(P(=O)(O)O)P(=O)(O)O", "note": "[pure bisphosphonate, pamidronate]", "values": [
      {"measurement": "relative reduction of the bisphosphonate content (immediate detachment)", "result": "approximately 100%"}
    ]}
  ]
}
